Measurements from patent publication US20100167931A1, “HETEROCYCLICALLY SUBSTITUTED HETEROCYCLYLCARBOXYLIC ACID DERIVATIVES” (Bayer CropScience AG, priority 2007, published 2010).

Tested on: not listed separately
Assay: logP determination by HPLC on reverse-phase column (EEC Directive 79/831 Annex V.A8)
Assay type: physicochemical
Conditions: HPLC reverse-phase C 18, 43° C., pH 2.7, 0.1% aqueous formic acid and acetonitrile
Experimental: The logP values given in the tables and preparation examples above were determined in accordance with EEC Directive 79/831 Annex V.A8 by HPLC (High Performance Liquid Chromatography) on a reverse-phase column (C 18). Temperature: 43° C. The determination was carried out by LC-MS at pH 2.7 using 0.1% aqueous formic acid and acetonitrile (containing 0.1% formic acid) as mobile phases; linear gradient from 10% acetonitrile to 95% acetonitrile. Calibration was carried out using unbranched alkan-2-ones (having 3 to 16 carbon atoms) with known logP values (determination of the logP values by the retention times using linear interpolation between two successive alkanones).

logP	SMILES
m/z 457, logP 3.11	CC(C)Nc1c(-n2nc(C(F)(F)F)cc2C(F)(F)F)c(Cl)nc2c(C(=O)O)cnn12 [Example I-20]
m/z 469, logP 3.22	O=C(O)c1cnn2c(NCC3CC3)c(-n3nc(C(F)(F)F)cc3C(F)(F)F)c(Cl)nc12 [Example I-23]
m/z 383, logP 2.81	CC(C)C(C)Nc1c(-n2cc(Cl)cn2)c(Cl)nc2c(C(=O)O)cnn12 (centres unmarked) [Example I-25]
logP 2.20	Cc1nn(C)c(-c2c(Cl)nc3c(C(=O)O)cnn3c2NC(C)C)c1Cl [Example I-57]

Same assay, conditions: intermediates of the formula (IV); HPLC reverse-phase C18, 43° C., pH 2.7 (0.1% aqueous formic acid/acetonitrile)

logP	SMILES
m/z 412, logP 1.37	COC(=O)c1cnn2c(O)c(-n3nc(C(F)(F)F)cc3C(F)(F)F)c(O)nc12 [IV-3]
m/z 310, logP 0.43	COC(=O)c1cnn2c(O)c(-n3cc(Cl)cn3)c(O)nc12 [IV-4]
m/z 321, logP 0.43	COC(=O)c1cnn2c(O)c(-c3nc(C)sc3C)c(O)nc12 [IV-5]
logP 0.78	COC(=O)c1cnn2c(O)c(-c3cncc(Br)c3)c(O)nc12 [IV-15]
logP 0.59	COC(=O)c1cnn2c(O)c(-c3c(Cl)c(C)nn3C)c(O)nc12 [IV-17]
logP 0.91	COC(=O)c1cnn2c(O)c(-c3ncc(C(F)(F)F)cc3F)c(O)nc12 [IV-19]
logP 0.65	COC(=O)c1cnn2c(O)c(-c3ncccc3C(F)(F)F)c(O)nc12 [IV-20]

Same assay, conditions: intermediates of the formula (V); HPLC reverse-phase C18, 43° C., pH 2.7 (0.1% aqueous formic acid/acetonitrile)

logP	SMILES
m/z 448, logP 3.64	COC(=O)c1cnn2c(Cl)c(-n3nc(C(F)(F)F)cc3C(F)(F)F)c(Cl)nc12 [V-3]
m/z 346, logP 2.50	COC(=O)c1cnn2c(Cl)c(-n3cc(Cl)cn3)c(Cl)nc12 [V-5]
m/z 354, logP 1.88	COC(=O)c1cnn2c(Cl)c(-c3c(C)nn(C)c3C)c(Cl)nc12 [V-8]
logP 2.67	COC(=O)c1cnn2c(Cl)c(-c3c(Cl)c(C)nn3C)c(Cl)nc12 [V-18]
logP 2.61	COC(=O)c1cnn2c(Cl)c(-c3ncccc3C(F)(F)F)c(Cl)nc12 [V-21]

Same assay, conditions: intermediates of the formula (VI); HPLC reverse-phase C18, 43° C., pH 2.7 (0.1% aqueous formic acid/acetonitrile)

logP	SMILES
m/z 397, logP 3.59	COC(=O)c1cnn2c(NC(C)C(C)C)c(-n3cc(Cl)cn3)c(Cl)nc12 (centres unmarked) [VI-9]
m/z 382, logP 2.76	COC(=O)c1cnn2c(NC(C)C)c(-c3ncc(F)cc3F)c(Cl)nc12 [VI-11]
m/z 431, logP 2.54	COC(=O)c1cnn2c(NC(C)C(F)(F)F)c(-c3c(C)nn(C)c3C)c(Cl)nc12 (centres unmarked) [VI-12]

Same assay, conditions: reverse-phase C18 HPLC column; HPLC reverse-phase C 18, 43° C., pH 2.7, 0.1% aqueous formic acid and acetonitrile

chromatographic logP	SMILES
0.9	N#CC(C#N)c1c(Cl)cncc1Cl [2-(3,5-dichloropyridin-4-yl)malononitrile]
2.16	COC(=O)c1cnn2c(Cl)c(-n3nc(C)cc3C)c(Cl)nc12 [Example V-1, Methyl 5,7-dichloro-6-(3,5-dimethyl-1H-pyrazol-1-yl)pyrazolo[1,5-a]pyrimidine-3-carboxylate]
3.12	COC(=O)c1cnn2c(Cl)c(-c3ncc(Cl)cc3Cl)c(Cl)nc12 [Example V-2, Methyl 5,7-dichloro-6-(3,5-dichloropyridin-2-yl)pyrazolo[1,5-a]pyrimidine-3-carboxylate]
0.41	COC(=O)c1cnn2c(O)c(-n3nc(C)cc3C)c(O)nc12 [IV-1, Methyl 6-(3,5-dimethyl-1H-pyrazol-1-yl)-5,7-dihydroxypyrazolo[1,5-a]pyrimidine-3-carboxylate]
0.74	COC(=O)c1cnn2c(O)c(-c3ncc(Cl)cc3Cl)c(O)nc12 [IV-2, Methyl 6-(3,5-dichloropyridin-2-yl)-5,7-dihydroxypyrazolo[1,5-a]pyrimidine-3-carboxylate]
3.79	COC(=O)c1cnn2c(NCC(F)(F)F)c(-n3nc(C(F)(F)F)cc3C(F)(F)F)c(Cl)nc12 [VI-2, Methyl 6-[3,5-bis(trifluoromethyl)-1H-pyrazol-1-yl]-5-chloro-7-[(2,2,2-trifluoroethyl)amino]-pyrazolo[1,5-a]pyrimidine-3-carboxylate]

Tested on: Boophilus microplus
Assay: Boophilus microplus test (injection)
Assay type: in vivo
Conditions: application rate of 20 μg/animal
Experimental: Boophilus microplus Test (Injection) Solvent: dimethyl sulphoxide To produce a suitable preparation of active compound, 1 part by weight of active compound is mixed with the stated amount of solvent, and the concentrate is diluted with solvent to the desired concentration. The solution of active compound is injected into the abdomen (Boophilus microplus), the animals are transferred into dishes and stored in a climatized room. After the desired period of time, the effect in % is determined. 100% means that none of the ticks has laid any fertile eggs.

SMILES	effect (no fertile eggs laid)
CC(C)C(C)Nc1c(-n2nc(C(F)(F)F)cc2C(F)(F)F)c(Cl)nc2c(C(=O)NS(C)(=O)=O)cnn12 (centres unmarked) [Example I-4]	≥ 80%

Tested on: green peach aphid (Myzus persicae)
Assay: Activity increase by ammonium/phosphonium salts in combination with penetrants, Myzus persicae test
Assay type: in vivo
Conditions: 20 ppm, +AS 1000 ppm, bell pepper plants
Experimental: Activity Increase by Ammonium/Phosphonium Salts in Combination with Penetrants Myzus persicae Test
Solvent: 7 parts by weight of dimethylformamide
Emulsifier: 2 parts by weight of alkylaryl polyglycol ether
To produce a suitable preparation of active compound, 1 part by weight of active compound is mixed with the stated amounts of solvent and emulsifier, and the concentrate is diluted with emulsifier-containing water to the desired concentration. If the addition of ammonium salts or ammonium salts and penetrants is required, these are in each case added in a concentration of 1000 ppm after dilution to the finished solution of the preparation.
Bell pepper plants (Capsicum annuum) which are heavily infested by the green peach aphid (Myzus persicaei) are treated by being sprayed with the active compound preparation at the desired concentration.
After the desired period of time, the kill in % is determined. 100% means that all animals have been killed; 0% means that none of the animals have been killed.

SMILES	Kill (%) after 6 d +AS 1000 ppm
CC(C)Nc1c(-c2ncccc2Cl)c(Cl)nc2c(C(=O)NS(C)(=O)=O)cnn12 [Example I-32]	60%

Same assay, conditions: 20 ppm, +AS + RME in each case 1000 ppm, bell pepper plants

SMILES	Kill (%) after 6 d +AS + RME in each case 1000 ppm
CC(C)Nc1c(-c2ncccc2Cl)c(Cl)nc2c(C(=O)NS(C)(=O)=O)cnn12 [Example I-32]	90%

Same assay, conditions: 20 ppm, active compound alone, bell pepper plants

SMILES	Kill (%) after 6 d
CC(C)Nc1c(-c2ncccc2Cl)c(Cl)nc2c(C(=O)NS(C)(=O)=O)cnn12 [Example I-32]	10%
